# How the values were obtained:
# Type in all cases: in vivo, human (pediatric patients)
# [1] = Skin safety evaluations: signs and symptoms of skin atrophy; details: for Patients who showed new signs of skin atrophy at Week 2 not present at Baseline: 5/62
# From the text: (§1) Patients who met the inclusion/exclusion criteria were randomized to receive topical fluocinonide either qd or bid. Patients/guardians were instructed to apply a thin layer of the study product to all treatable areas once or twice daily for 14 days. If the areas to be treated were hairy, patients/guardians were instructed to part the hair to allow direct contact between the study product and the lesion. Patients/guardians were also instructed not to apply study product to lesions of the face, groin, perianal area, and axillae. At the end of Weeks 1, 2, and 4, patients returned to the study site in order for the investigator to perform designated evaluations, review treatment compliance and concomitant therapy, and to collect information regarding adverse events.
# Specific skin safety evaluations were performed at each study visit with regard to all treated lesions by noting the presence or absence of the following 8 signs and symptoms of skin atrophy: telangiectasia, transparency, loss of elasticity, loss of normal skin markings, thinning, striae, pigmentation changes, and bruising.
# [2] = Treatment-emergent adverse events
# From the text: as §1
# Adverse events were coded using MedDRA terminology (a standard dictionary of terms used to clarify adverse events) and were described according to their intensity, duration and relationship to the study product.
# [3] = Efficacy: investigator rating of atopic dermatitis severity; details: for Patients who continued to show an improvement of clear or almost clear compared to Baseline: 2-week follow-up visit
# From the text: as §1
# Efficacy was assessed by observing the change in the severity of atopic dermatitis from Baseline to Week 2 and Week 4. A disease exacerbation requiring more aggressive treatment than previously used was considered an adverse event.
# The sole efficacy variable in the study was an investigator rating of skin disease severity performed at Screening, at end of treatment, and at a follow-up visit 4 weeks after the start of study treatment. Fluocinonide administered either qd or bid appears to be effective against atopic dermatitis in children aged 3 months to 17 years. In each of the 4 cohorts of this study, more than 90% of the patients in both the fluocinonide qd and bid group were rated by the investigator as showing an improvement in their disease status or as clear or almost clear of disease at the end of the treatment period. The qd regimen appeared to be as effective as the bid regimen across all age groups.
smiles,measurement,setting,value
"CC(=O)OCC(=O)[C@@]12OC(C)(C)O[C@@H]1C[C@H]1[C@@H]3C[C@H](F)C4=CC(=O)C=C[C@]4(C)[C@@]3(F)[C@@H](O)C[C@@]12C [Fluocinonide, pregna-1,4-diene-3,20-dione,21-(acetyloxy)-6,9-difluoro-11-hydroxy-16, 17-[(1-methylethylidene)bis(oxy)]-,(6α., 11β,16α)-]",Number (%) of patients who showed new signs at Week 2 not present at Baseline,"[1]; Cohort 1 (12-<18), bid",2 (12.5) Number (%)
same,Number (%) of patients who showed new signs at Week 2 not present at Baseline,"[1]; Cohort 1 (12-<18), qd",2 (13.3) Number (%)
same,Number (%) of patients who showed new signs at Week 2 not present at Baseline,"[1]; Cohort 2 (6-<12), bid",1 (6.3) Number (%)
same,Number (%) of patients who showed new signs at Week 2 not present at Baseline,"[1]; Cohort 2 (6-<12), qd",0 Number (%)
same,Number (%) of patients who showed new signs at Week 2 not present at Baseline,"[1]; Cohort 3 (2-<6), bid",0 Number (%)
same,Number (%) of patients who showed new signs at Week 2 not present at Baseline,"[1]; Cohort 3 (2-<6), qd",1 (6.7) Number (%)
same,Number (%) of patients who showed new signs at Week 2 not present at Baseline,"[1]; Cohort 4 (3 months to <2 year), bid",2 (13.3) Number (%)
same,Number (%) of patients who showed new signs at Week 2 not present at Baseline,"[1]; Cohort 4 (3 months to <2 year), qd",2 (12.5) Number (%)
same,Patients who showed new signs of skin atrophy at Week 2 not present at Baseline,[1]; bid treatment group overall,8.1%
same,Patients who showed new signs of skin atrophy at Week 2 not present at Baseline,[1]; qd treatment group overall,8.1%
same,Burning Sensation NOS,"[2]; Cohort 1, bid",2 (11.8) Number (%)
same,Dermatitis diaper,"[2]; Cohort 1, bid",0 (0) Number (%)
same,Folliculitis,"[2]; Cohort 1, bid",1 (5.9) Number (%)
same,Gastroenteritis NOS,"[2]; Cohort 1, bid",0 (0) Number (%)
same,Headache,"[2]; Cohort 1, bid",3 (17.6) Number (%)
same,Pain NOS,"[2]; Cohort 1, bid",2 (11.8) Number (%)
same,Pyrexia,"[2]; Cohort 1, bid",0 (0) Number (%)
same,Total no. of patients with AEs,"[2]; Cohort 1, bid",9 (52.9) Number (%)
same,Upper respiratory tract infection,"[2]; Cohort 1, bid",0 (0) Number (%)
same,Burning Sensation NOS,"[2]; Cohort 1, qd",0 (0) Number (%)
same,Dermatitis diaper,"[2]; Cohort 1, qd",0 (0) Number (%)
same,Folliculitis,"[2]; Cohort 1, qd",2 (12.5) Number (%)
same,Gastroenteritis NOS,"[2]; Cohort 1, qd",0 (0) Number (%)
same,Headache,"[2]; Cohort 1, qd",1 (6.3) Number (%)
same,Pain NOS,"[2]; Cohort 1, qd",0 (0) Number (%)
same,Pyrexia,"[2]; Cohort 1, qd",0 (0) Number (%)
same,Total no. of patients with AEs,"[2]; Cohort 1, qd",6 (37.5) Number (%)
same,Upper respiratory tract infection,"[2]; Cohort 1, qd",0 (0) Number (%)
same,Burning Sensation NOS,"[2]; Cohort 2, bid",0 (0) Number (%)
same,Dermatitis diaper,"[2]; Cohort 2, bid",0 (0) Number (%)
same,Folliculitis,"[2]; Cohort 2, bid",0 (0) Number (%)
same,Gastroenteritis NOS,"[2]; Cohort 2, bid",0 (0) Number (%)
same,Headache,"[2]; Cohort 2, bid",0 (0) Number (%)
same,Pain NOS,"[2]; Cohort 2, bid",0 (0) Number (%)
same,Pyrexia,"[2]; Cohort 2, bid",0 (0) Number (%)
same,Total no. of patients with AEs,"[2]; Cohort 2, bid",6 (37.5) Number (%)
same,Upper respiratory tract infection,"[2]; Cohort 2, bid",1 (6.3) Number (%)
same,Burning Sensation NOS,"[2]; Cohort 2, qd",0 (0) Number (%)
same,Dermatitis diaper,"[2]; Cohort 2, qd",0 (0) Number (%)
same,Folliculitis,"[2]; Cohort 2, qd",1 (6.3) Number (%)
same,Gastroenteritis NOS,"[2]; Cohort 2, qd",0 (0) Number (%)
same,Headache,"[2]; Cohort 2, qd",0 (0) Number (%)
same,Pain NOS,"[2]; Cohort 2, qd",1 (6.3) Number (%)
same,Pyrexia,"[2]; Cohort 2, qd",0 (0) Number (%)
same,Total no. of patients with AEs,"[2]; Cohort 2, qd",4 (25.0) Number (%)
same,Upper respiratory tract infection,"[2]; Cohort 2, qd",0 (0) Number (%)
same,Burning Sensation NOS,"[2]; Cohort 3, bid",0 (0) Number (%)
same,Dermatitis diaper,"[2]; Cohort 3, bid",0 (0) Number (%)
same,Folliculitis,"[2]; Cohort 3, bid",0 (0) Number (%)
same,Gastroenteritis NOS,"[2]; Cohort 3, bid",0 (0) Number (%)
same,Headache,"[2]; Cohort 3, bid",0 (0) Number (%)
same,Pain NOS,"[2]; Cohort 3, bid",0 (0) Number (%)
same,Pyrexia,"[2]; Cohort 3, bid",0 (0) Number (%)
same,Total no. of patients with AEs,"[2]; Cohort 3, bid",2 (13.3) Number (%)
same,Upper respiratory tract infection,"[2]; Cohort 3, bid",0 (0) Number (%)
same,Burning Sensation NOS,"[2]; Cohort 3, qd",0 (0) Number (%)
same,Dermatitis diaper,"[2]; Cohort 3, qd",0 (0) Number (%)
same,Folliculitis,"[2]; Cohort 3, qd",0 (0) Number (%)
same,Gastroenteritis NOS,"[2]; Cohort 3, qd",0 (0) Number (%)
same,Headache,"[2]; Cohort 3, qd",0 (0) Number (%)
same,Pain NOS,"[2]; Cohort 3, qd",0 (0) Number (%)
same,Pyrexia,"[2]; Cohort 3, qd",0 (0) Number (%)
same,Total no. of patients with AEs,"[2]; Cohort 3, qd",3 (20) Number (%)
same,Upper respiratory tract infection,"[2]; Cohort 3, qd",0 (0) Number (%)
same,Burning Sensation NOS,"[2]; Cohort 4, bid",0 (0) Number (%)
same,Dermatitis diaper,"[2]; Cohort 4, bid",0 (0) Number (%)
same,Folliculitis,"[2]; Cohort 4, bid",0 (0) Number (%)
same,Gastroenteritis NOS,"[2]; Cohort 4, bid",0 (0) Number (%)
same,Headache,"[2]; Cohort 4, bid",0 (0) Number (%)
same,Pain NOS,"[2]; Cohort 4, bid",0 (0) Number (%)
same,Pyrexia,"[2]; Cohort 4, bid",2 (13.3) Number (%)
same,Total no. of patients with AEs,"[2]; Cohort 4, bid",7 (46.7) Number (%)
same,Upper respiratory tract infection,"[2]; Cohort 4, bid",1 (6.7) Number (%)
same,Burning Sensation NOS,"[2]; Cohort 4, qd",0 (0) Number (%)
same,Dermatitis diaper,"[2]; Cohort 4, qd",2 (12.5) Number (%)
same,Folliculitis,"[2]; Cohort 4, qd",0 (0) Number (%)
same,Gastroenteritis NOS,"[2]; Cohort 4, qd",2 (12.5) Number (%)
same,Headache,"[2]; Cohort 4, qd",0 (0) Number (%)
same,Pain NOS,"[2]; Cohort 4, qd",0 (0) Number (%)
same,Pyrexia,"[2]; Cohort 4, qd",2 (12.5) Number (%)
same,Total no. of patients with AEs,"[2]; Cohort 4, qd",8 (50.0) Number (%)
same,Upper respiratory tract infection,"[2]; Cohort 4, qd",2 (12.5) Number (%)
same,Patients who reported at least one treatment-emergent adverse event (TEAE),"[2]; all treated patients, 45 of 126",35.7%
same,Deaths or other serious adverse events,[2]; whole study,No deaths or other serious adverse events
same,Patients who continued to show an improvement of clear or almost clear compared to Baseline,[3]; each dosage group in Cohort 1 and Cohort 3,> 80%
same,Patients who continued to show an improvement of clear or almost clear compared to Baseline,[3]; each dosage group in Cohort 2,> 70%
same,Patients who continued to show an improvement of clear or almost clear compared to Baseline,[3]; each dosage group in Cohort 4,> 90%
same,Patients rated as showing an improvement in disease status or as clear or almost clear of disease,"[3]; end of treatment period vs Baseline, Cohort 1 and Cohort 2, bid",> 90%
same,Patients rated as showing an improvement in disease status or as clear or almost clear of disease,"[3]; end of treatment period vs Baseline, Cohort 1 and Cohort 2, qd",all of the patients
same,Patients rated as showing an improvement in disease status or as clear or almost clear of disease,"[3]; end of treatment period, Cohorts 3 and 4, both qd and bid groups",> 90%
same,Patients rated as showing an improvement in disease status or as clear or almost clear of disease,"[3]; end of treatment period, each of the 4 cohorts, both qd and bid group",more than 90%
